In PMC10895674, “First-in-Class Dual EZH2-HSP90 Inhibitor Eliciting Striking Antiglioblastoma Activity In Vitro and In Vivo” (Journal of Medicinal Chemistry, 2024):

Tests used:
Pt3R cells = assay: Itraq-based proteomics analysis of global protein expression; type: cell-based, human; details: 2 μM
Description: Having identified the desired chemical probe 7, we assessed global protein expression using Itraq-based proteomics analysis to estimate whether 7 suppresses HSP90 (Pt3R cell lines). […] This observation is aligned with the results attained with geldanamycin treatment (a well-known HSP90 inhibitor)[49],[50] and confirms the HSP90-suppressive activity of compound 7 in GBM cells.
(§1) RNA was isolated using the RNA extracting kit (Zymo Research, Irvine, CA) and subjected to RNA-seq serviced by BIOTOOLS Co., Ltd. (New Taipei City, Taiwan). Cell pellets were collected and subjected to proteomic analysis serviced by BIOTOOLS Co., Ltd. The comparison in gene expression between Pt3 and Pt3R was performed using RNA seq and described previously.[60]

[1] = tested on: TMZ-resistant cells (Pt3R); assay: Cell viability CCK8 assay; type: cell-based, human; details: Homo sapiens, 72 h, CCK8, read-out: IC50, cell growth inhibitory effects
Description: The CCK8 reagent was purchased from TargetMOI (Wellesley Hills, MA) and used according to the manufacturer’s instruction.

TMZ-resistant Pt3R cells = assay: RNA-seq gene expression profile (and cell morphology) after 48 h; type: cell-based, human
Method: To gain insights regarding the ability of dual inhibitor 7 to suppress the viability of TMZ-resistant GBM cells, RNA-seq to analyze gene expression profiles was performed.
Figure 7 Effect of compound 7 on gene expression profile in TMZ-resistant Pt3R cells. […] (B) GSEA functionally grouped genes. (C) Genes involved in apoptosis/necrosis and M phase/Kinetochore/Spindle were clustered in the heatmap.
as §1

Pt#3-R-induced tumor = assay: In vivo anti-GBM efficacy, Pt3R xenograft; details: 20 mg/kg, intraperitoneally twice per week, NOD.CB17-Prkdc scid mice
Method: In vivo anti-GBM efficacy of compound 7 was also evaluated in this study. For the in vivo study, experimental NOD.CB17-Prkdc^scid/NCrCrl mice (8-week-old) were used and Pt3R cells (1 × 10^6) in 50 μL Dulbecco’s modified Eagle’s medium (DMEM) were injected into the back of mice. After 10 days, the tumor was detectable. […] In a nutshell, the outcome of the in vivo study ascertains that the remarkable in vitro anti-GBM activity profile of dual inhibitor 7 was translated to the in vivo potential.
Animal experiments were approved by the institutional animal care and use committee of Taipei Medical University (IACUC: LAC2022-0288). Male NOD.CB17-Prkdc^scid/NCrCrl mice (8-week-old) were purchased from BioLASCO Taiwan Co., Ltd. (Taipei, Taiwan). Pt3R cells (1 × 10^6) in 50 μL of DMEM were injected into the back of mice. Experimental mice were grouped as follows (Figure 11): DMSO (n = 5), C7–10 mg/kg (n = 4), C7–20 mg/kg (n = 6), TAZ-10 mg/kg (n = 6), TAZ-20 mg/kg (n = 8), STA-5+TAZ-5 mg/kg (n = 7), STA-10+TAZ-10 mg/kg (n = 7) and STA-15+TAZ-15 mg/kg (n = 7). After 10 days, the tumor was touchable. Mice were injected intraperitoneally with DMSO (the control group) or compounds twice per week.

CCN(c1cc(-c2cccc(N(C)C(=O)c3cc(C(C)C)c(O)cc3O)c2)cc(C(=O)NCc2c(C)cc(C)[nH]c2=O)c1C)C1CCOCC1 [Compound 7, 3′-(2,4-Dihydroxy-5-isopropyl-N-methylbenzamido)-N-((4,6-dimethyl-2-oxo-1,2-dihydropyridin-3-yl)methyl)-5-(ethyl(tetrahydro-2H-pyran-4-yl)amino)-4-methyl-[1,1′-biphenyl]-3-carboxamide]
C7/DMSO, ANXA5 (P08758) (Pt3R cells; protein decreased): 0.406
C7/DMSO, CORO1C (Q9ULV4) (Pt3R cells; protein decreased): 0.410
C7/DMSO, CYB5B (O43169) (Pt3R cells; protein decreased): 0.568
C7/DMSO, DDX6 (P26196) (Pt3R cells; protein decreased): 0.596
C7/DMSO, DDX39A (O00148) (Pt3R cells; protein decreased): 0.515
C7/DMSO, EIF3I (Q13347) (Pt3R cells; protein decreased): 0.624
C7/DMSO, GNB2 (P62879) (Pt3R cells; protein decreased): 0.628
C7/DMSO, H1–2 (P16403) (Pt3R cells; protein decreased): 0.334
C7/DMSO, H2AZ1 (P0C0S5) (Pt3R cells; protein decreased): 0.603
C7/DMSO, H2BC11 (P06899) (Pt3R cells; protein decreased): 0.423
C7/DMSO, H2BC12 (O60814) (Pt3R cells; protein decreased): 0.419
C7/DMSO, H4C1 (P62805) (Pt3R cells; protein decreased): 0.556
C7/DMSO, HADHB (P55084) (Pt3R cells; protein decreased): 0.591
C7/DMSO, HIST1H2AH (Q96KK5) (Pt3R cells; protein decreased): 0.245
C7/DMSO, HIST2H3A (Q71DI3) (Pt3R cells; protein decreased): 0.240
C7/DMSO, HMGB2 (P26583) (Pt3R cells; protein decreased): 0.575
C7/DMSO, HMGB3 (O15347) (Pt3R cells; protein decreased): 0.573
C7/DMSO, HNRNPA3 (P51991) (Pt3R cells; protein decreased): 0.377
C7/DMSO, ILF3 (Q12906) (Pt3R cells; protein decreased): 0.645
C7/DMSO, MCM3 (P25205) (Pt3R cells; protein decreased): 0.635
C7/DMSO, MCM7 (P33993) (Pt3R cells; protein decreased): 0.586
C7/DMSO, NASP (P49321) (Pt3R cells; protein decreased): 0.604
C7/DMSO, NT5E (P21589) (Pt3R cells; protein decreased): 0.446
C7/DMSO, PA2G4 (Q9UQ80) (Pt3R cells; protein decreased): 0.628
C7/DMSO, PCBP1 (Q15365) (Pt3R cells; protein decreased): 0.628
C7/DMSO, PTGES3 (Q15185) (Pt3R cells; protein decreased): 0.589
C7/DMSO, RACK1 (P63244) (Pt3R cells; protein decreased): 0.627
C7/DMSO, RPL26 (P61254) (Pt3R cells; protein decreased): 0.619
C7/DMSO, RPL35 (P42766) (Pt3R cells; protein decreased): 0.629
C7/DMSO, RPS6 (P62753) (Pt3R cells; protein decreased): 0.641
C7/DMSO, RPS10 (P46783) (Pt3R cells; protein decreased): 0.608
C7/DMSO, S100A13 (Q99584) (Pt3R cells; protein decreased): 0.638
C7/DMSO, SERPINB6 (P35237) (Pt3R cells; protein decreased): 0.632
C7/DMSO, SRSF7 (Q16629) (Pt3R cells; protein decreased): 0.605
C7/DMSO, TAF15 (Q92804) (Pt3R cells; protein decreased): 0.609
C7/DMSO, TNS3 (Q68CZ2) (Pt3R cells; protein decreased): 0.582
C7/DMSO, TUBB4B (P68371) (Pt3R cells; protein decreased): 0.564
C7/DMSO, TXNDC5 (Q8NBS9) (Pt3R cells; protein decreased): 0.635
C7/DMSO, YWHAG (P61981) (Pt3R cells; protein decreased): 0.447
C7/DMSO, ACTB (P60709) (Pt3R cells; protein increased): 1.657
C7/DMSO, ARF3 (P61204) (Pt3R cells; protein increased): 1.944
C7/DMSO, ATP5IF1 (Q9UII2) (Pt3R cells; protein increased): 1.646
C7/DMSO, ATP6 V1E1 (P36543) (Pt3R cells; protein increased): 1.599
C7/DMSO, CLIC1 (O00299) (Pt3R cells; protein increased): 2.598
C7/DMSO, CTNNB1 (P35222) (Pt3R cells; protein increased): 1.550
C7/DMSO, EEF1B2 (P24534) (Pt3R cells; protein increased): 1.792
C7/DMSO, EHD1 (Q9H4M9) (Pt3R cells; protein increased): 1.555
C7/DMSO, GIPC1 (O14908) (Pt3R cells; protein increased): 1.699
C7/DMSO, HK1 (P19367) (Pt3R cells; protein increased): 1.921
C7/DMSO, HSP90AA1 (P07900) (Pt3R cells; protein increased): 1.958
C7/DMSO, HSPA1A (P0DMV8) (Pt3R cells; protein increased): 2.843
C7/DMSO, HSPA4 (P34932) (Pt3R cells; protein increased): 1.561
C7/DMSO, HSPA8 (P11142) (Pt3R cells; protein increased): 2.096
C7/DMSO, HSPB1 (P04792) (Pt3R cells; protein increased): 1.661
C7/DMSO, HSPE1 (P61604) (Pt3R cells; protein increased): 1.710
C7/DMSO, HSPH1 (Q92598) (Pt3R cells; protein increased): 1.642
C7/DMSO, LRPAP1 (P30533) (Pt3R cells; protein increased): 1.667
C7/DMSO, NME1 (P15531) (Pt3R cells; protein increased): 3.299
C7/DMSO, OCIAD2 (Q56VL3) (Pt3R cells; protein increased): 2.150
C7/DMSO, OLA1 (Q9NTK5) (Pt3R cells; protein increased): 1.745
C7/DMSO, P4HA2 (O15460) (Pt3R cells; protein increased): 1.588
C7/DMSO, PSMD3 (O43242) (Pt3R cells; protein increased): 1.801
C7/DMSO, PSMD14 (O00487) (Pt3R cells; protein increased): 1.579
C7/DMSO, S100A10 (P60903) (Pt3R cells; protein increased): 1.664
C7/DMSO, SERPINE1 (P05121) (Pt3R cells; protein increased): 4.203
C7/DMSO, SERPINH1 (P50454) (Pt3R cells; protein increased): 2.186
C7/DMSO, TWF1 (Q12792) (Pt3R cells; protein increased): 1.995
C7/DMSO, ZYX (Q15942) (Pt3R cells; protein increased): 1.903
IC50 [1]: 1010 ± 690 nM
centromere proteins (CENPs) CENPF, CENPE, CENPA, CENPI gene expression (TMZ-resistant Pt3R cells; Pt3R (Figure 8C)): decreased
RBBP8 and BRCA1 gene expression (TMZ-resistant Pt3R cells; Pt3R (Figure 9A)): suppressed
genes regulating homologous recombination (TOP2A, RAD54B, RAD21, EME1, BRIP1) (TMZ-resistant Pt3R cells; Pt3R (Figure 9H)): suppressed
number of gene expressions decreased (RNA-seq) (TMZ-resistant Pt3R cells; Pt3R, 2 μM, 48 h): 498
number of gene expressions increased (RNA-seq) (TMZ-resistant Pt3R cells; Pt3R, 2 μM, 48 h): 297
cell proliferation (TMZ-resistant Pt3R cells; Pt3R, 2 μM, 48 h (Figure 7A)): significantly inhibited cell proliferation
M phase/kinetochore/spindle-related gene expression (TMZ-resistant Pt3R cells; Pt3R, 48 h): decreased
apoptosis/necrosis-related gene expression (TMZ-resistant Pt3R cells; Pt3R, 48 h): increased
growth of Pt#3-R-induced tumor (Pt#3-R-induced tumor): significantly decreased the growth
